{"source": "patent US20190293584A1", "about": "“Detection of Living Cells” (priority 2018, published 2019)", "key": {"M. tuberculosis": {"system": "M. tuberculosis", "conditions": "known from literature; cited from earlier work"}, "M. bovis BCG [1]": {"system": "M. bovis BCG", "conditions": "known from literature; cited from earlier work"}, "M. bovis BCG [2]": {"system": "M. bovis BCG", "type": "cell-based, Mycobacterium bovis BCG"}, "M. smegmatis [3]": {"system": "M. smegmatis", "type": "cell-based, Mycobacterium smegmatis"}, "M. smegmatis [4]": {"system": "M. smegmatis", "conditions": "known from literature; cited from earlier work"}, "[5]": {"system": "most other non-mycobacterial species", "conditions": "known from literature; cited from earlier work"}, "[6]": {"system": "cocktail of S. aureus and P. aeruginosa", "assay": "m-EIS bulk capacitance vs time, incompletely decontaminated artificial sputum with non-mycobacterial cultures", "type": "cell-based, Staphylococcus aureus and Pseudomonas aeruginosa", "conditions": "incomplete decontamination: NaOH-NALC approximately 1 minute, 0.25 N NaOH", "excerpt": "All m-EIS readings were done post digestion and decontamination of the samples using the NALC-NaOH technique. In the first case, the sample has no bacteria and no changes in charge storage (bulk capacitance) should occur at any point in time. It is expected to see a flat line as there should be no change in the bulk capacitance over time. In case three, where the sample contains gram-positive and gram-negative bacteria, but no mycobacteria, all organisms should be killed during decontamination (pre-treatment) itself, and the addition of the antibiotics is not expected to cause any changes to the measured value of bulk capacitance. However, if there are mycobacteria in the sample (as in case […]), the mycobacteria should survive the decontamination process and continue to grow in the presence of Carbenicillin (case 2B). However, they will die in the presence of amikacin (case 2A). […]\nThe experimental protocol requires periodic (e.g., every hour) performance of an electrical “scan” of sample aliquots in a microfluidic cassette, wherein electrical impedance was measure at multiple (200) frequencies ranging from 1 kHz to 100 MHz. […] At each frequency (ω), both the in-phase and out-of-phase components of the electrical impedance, Z, (resistance (R) and reactance (X)) were measured. […]"}, "mycobacteria": {"system": "mycobacteria", "conditions": "known from literature; cited from earlier work"}}, "note": "Structures can show the parent of a compound that is named as a salt."}
{"smiles": "NCC[C@H](O)C(=O)N[C@@H]1C[C@H](N)[C@@H](O[C@H]2O[C@H](CN)[C@@H](O)[C@H](O)[C@H]2O)[C@H](O)[C@H]1O[C@H]1O[C@H](CO)[C@@H](O)[C@H](N)[C@H]1O", "note": "[Amikacin]", "values": [{"measurement": "bactericidal effect", "setting": "M. tuberculosis", "value": "bactericidal effects"}, {"measurement": "bactericidal effect", "setting": "M. bovis BCG [1]", "value": "bactericidal effects"}, {"measurement": "time-to-detection (TTD)", "setting": "M. bovis BCG [2]; M. bovis BCG in artificial sputum, exposed to amikacin", "value": "< 3", "unit": "h"}, {"measurement": "time-to-detection (TTD): earliest time at which bulk capacitance is significantly lower than baseline", "setting": "M. smegmatis [3]; M. smegmatis in artificial sputum after NaOH-NALC decontamination, initial loads (1 to 5)×10^5 CFU/ml, amikacin 32 μg/ml, carbenicillin 25 μg/ml", "value": "< 3", "unit": "h"}, {"measurement": "bactericidal effect", "setting": "M. smegmatis [4]", "value": "bactericidal effects"}]}
{"smiles": "CC1(C)S[C@@H]2[C@H](NC(=O)C(C(=O)O)c3ccccc3)C(=O)N2[C@H]1C(=O)O", "note": "(some centres unmarked) [Carbenicillin, Carbenicillin disodium salt]", "values": [{"measurement": "activity against non-mycobacterial species", "setting": "[5]", "value": "bactericidal"}, {"measurement": "change of bulk capacitance over time", "setting": "[6]", "value": "decreases in bulk capacitance were observed over time"}, {"measurement": "activity against mycobacteria", "setting": "mycobacteria", "value": "ineffective"}, {"measurement": "rate of increase in bulk capacitance", "setting": "M. bovis BCG [2]; Case 2, M. bovis BCG, 3 hours observation", "value": "negligible"}, {"measurement": "change of bulk capacitance over time", "setting": "M. bovis BCG [2]; Case 2, M. bovis BCG, duration of observation 3 hours", "value": "no growth was seen"}, {"measurement": "change of bulk capacitance (impedance values) over time", "setting": "M. smegmatis [3]; Case 2: M. smegmatis, P aeruginosa and S. aureus, after decontamination", "value": "not found to show any decrease over time"}]}
